The subject of assay [1] is RF strain of HIV-1 in CEM-SS cells. Put plainly: HIV-1 cell protection assay (XTT dye reduction). The format is cell-based. As to the method: HIV-1 Cell Protection Assay
The antiviral activities of potential modulator compounds (test compounds) were determined in HIV-1 cell protection assays using the RF strain of HIV-1, CEM-SS cells, and the XTT dye reduction method (Weislow, O. S. et al., J. Natl. Cancer Inst. 81: 577-586 (1989)). Subject cells were infected with HIV-1 RF virus at an moi of 0.025 to 0.819 or mock infected with medium only and added at 2×10^4 cells per well into 96 well plates containing half-log dilutions of test compounds. Six days later, 50 μl of XTT solution (1 mg/ml XTT tetrazolium and […] phenazine methosulfate) were added to the wells and the plates were reincubated for four hours. Viability, as determined by the amount of XTT formazan produced, was quantified spectrophotometrically by absorbance at 450 nm. Data from CPE assays were expressed as the percent of formazan produced in compound-treated cells compared to formazan produced in wells of uninfected, compound-free cells. […] The therapeutic index was calculated by dividing the cytotoxicity (CC50) by the antiviral activity (EC50).

In assay [2] the target is T1, Full-length wild type HIV-1 integrase (SF1) (Human immunodeficiency virus type 1 group M subtype B, UniProt P04585).
T1 construct: made in house; host or cells: E. coli BL21 (DE3)
Put plainly: Integrase strand-transfer scintillation proximity assay. The format is biochemical. The conditions noted are these: strand transfer, 50 min at 37° C., 246 nM integrase, 50 nM host DNA; read-out: IC50. The text has this:
Integrase Strand-Transfer Scintillation Proximity Assay Oligonucleotides
Oligonucleotide #1-5′-(biotin)[…]-3′ (SEQ ID NO: 1) and oligonucleotide #2-5′-[…]-3′ (SEQ ID NO: 2), were synthesized by TriLink BioTechnologies, Inc. (San Diego, Calif.). The annealed product represents preprocessed viral ds-DNA derived from the LTR U5 sequence of the viral genome. A ds-DNA control to test for non-specific interactions was made using a 3′ di-deoxy derivative of oligonucleotide #1 annealed to oligonucleotide #2. The CA overhang at the 5′ end of the non-biotinylated strand of the ds-DNA was created artificially by using a complimentary DNA oligonucleotide shortened by 2 base pairs. This configuration eliminates the requisite 3′ processing step of the integrase enzyme prior to the strand-transfer mechanism. Host ds-DNA was prepared as an unlabeled and [^3H]-thymidine labeled product from annealed oligonucleotide #3-5-[…]-3′ (SEQ ID NO: 3), and oligonucleotide #4-5′-[…]-3′ (SEQ ID NO: 4), both synthesized by TriLink BioTechnologies, Inc. (San Diego, Calif.). The annealed product had overhanging 3′ ends of poly(dA). Host DNA was custom radiolabeled by PerkinElmer Life Sciences Inc. (Boston, Mass.) using an enzymatic method with a 12/1 ratio of [methyl-3H]dTTP/cold ds-DNA to yield 5′-blunt end ds-DNA with a specific activity of >900 Ci/mmol. The radiolabeled product was purified using a NENSORB cartridge and stored in stabilized aqueous solution (PerkinElmer). The final radiolabeled product had six [^3H]-thymidine nucleotides at both 5′ ends of the host ds-DNA. Reagents: Streptavidin-coated polyvinyltoluene (PVT) SPA beads were purchased from Amersham Biosciences (Piscataway, N.J.). Cesium chloride was purchased from Shelton Scientific, Inc. (Shelton, Conn.). White, polystyrene, flat-bottom, non-binding surface, 96-well plates were purchased from Corning. All other buffer components were purchased from Sigma (St. Louis, Mo.) unless otherwise indicated.
Enzyme Construction: Full-length wild type HIV-1 integrase (SF1) sequence (amino acids 1-288) was constructed in a pET24a vector (Novagen, Madison, Wis.). The construct was confirmed through DNA sequencing. Enzyme Purification: Full length wild-type HIV Integrase was expressed in E. coli BL21 (DE3) cells and induced with 1 mM isopropyl-1 thio-β-D-galactopyranoside (IPTG) when cells reached an optical density between 0.8-1.0 at 600 nm. Cells were lysed by microfluidation in 50 mM HEPES pH 7.0, 75 mM NaCl, 5 mM DTT, 1 mM 4-(2-Aminoethyl)benzenesulfonylfluoride HCl (AEBSF). Lysate was then centrifuged 20 minutes at 11 k rpm in GSA rotor in Sorvall RC-5B at 4° C. Supernant was discarded and pellet resuspended in 50 mM HEPES pH 7.0, 750 mM NaCl, 5 mM DTT, 1 mM AEBSF and homogenized in a 40 mL Dounce homogenizer for 20 minutes on ice. Homogenate was then centrifuged 20 minutes at 11 k rpm in SS34 rotor in Sorvall RC-5B at 4° C. Supernant was discarded and pellet resuspended in 50 mM HEPES pH 7.0, 750 mM NaCl, 25 mM CHAPS, 5 mM DTT, 1 mM AEBSF. Preparation was then centrifuged 20 minutes at 11 k rpm in SS34 rotor in Sorvall RC-5B at 4° C. Supernant was then diluted 1:1 with 50 mM HEPES pH 7.0, 25 mM CHAPS, 1 mM DTT, 1 mM AEBSF and loaded onto a Q-Sepharose column pre-equilibrated with 50 mM HEPES, pH 7.0, 375 mM NaCl, 25 mM CHAPS, 1 mM DTT, 1 mM AEBSF. The flow through peak was collected and NaCl diluted to 0.1 M with 50 mM HEPES pH 7.0, 25 mM CHAPS, 1 mM DTT, 0.5 mM AEBSF and loaded onto a SP-Sepharose column pre-equilibrated with 50 mM HEPES pH 7.0, 100 mM NaCl, 25 mM CHAPS, 1 mM DTT, 0.5 mM AEBSF. After washing the column with the equilibration buffer, a 100 to 400 mM NaCl gradient was run. The eluted integrase was concentrated and run on a S-300 gel diffusion column using 50 mM HEPES pH 7.0, 500 mM NaCl, 25 mM CHAPS, 1 mM DTT, 0.5 mM AEBSF. The peak from this column was concentrated to 0.76 mg/mL and stored at −70° C. and later used for strand transfer assays. […]

Where [3] appears, read: HIV-1 RF, CEM-SS cells, XTT dye reduction, six days, read-out: EC50.
Where [4] appears, read: Human immunodeficiency virus 1, CEM-SS, 144 h, HIV-1 RF, CEM-SS cells, XTT dye reduction, six days, read-out: EC50.

SMILES strings stand for the structures. Where two headings read alike, the source gives them in different places.

As a reminder, the EC50 is the concentration at which the effect is half-maximal. A word on the IC50: it is the concentration that inhibits the measured activity by half. For the compound `CCN1CCCC1CNCc1cn(Cc2ccc(F)cc2F)c2cnc(C(=O)NO)cc12` (stereo not shown) [Example 62, 1-(2,4-Difluorobenzyl)-3-({[(1-ethylpyrrolidin-2-yl)methyl]amino}methyl)-N-hydroxy-1H-pyrrolo[2,3-c]pyridine-5-carboxamide], the EC50 in assay [1] (setting [3]) was found to be 17 nM. For the same compound, the IC50 in assay [2] came to 671 nM. On to `CC(C)OCCCNCc1cn(Cc2ccc(F)cc2F)c2cnc(C(=O)NO)cc12` [Example 83, 1-(2,4-Difluorobenzyl)-N-hydroxy-3-H{[(3-isopropoxypropyl)amino]methyl}-1H-pyrrolo[2,3-c]pyridine-5-carboxamide], for which the EC50 in assay [1] (setting [4]) was 60 nM. In addition, the IC50 in assay [2] came out at 952 nM.

With `COc1ncccc1NCc1cn(Cc2ccc(F)cc2F)c2cnc(C(=O)NO)cc12` [Example 90, 1-(2,4-Difluorobenzyl)-N-hydroxy-3—[(2-methoxypyridin-3-yl)amino-methyl]-1H-pyrrolo[2,3-c]pyridine-5-carboxamide], in assay [1] (setting [4]), the EC50 is 18 nM. Besides, the IC50 in assay [2] is 212 nM. For `O=C(NO)c1cc2c(CNCc3ccccn3)cn(Cc3ccc(F)cc3F)c2cn1` [Example 55, 1-(2,4-Difluorobenzyl)-N-hydroxy-3-{[(pyridin-2-ylmethyl)amino]methyl}-1H-pyrrolo[2,3-c]pyridine-5-carboxamide], in that order: 20 nM and 216 nM.

With `CN(O)C(=O)c1cc2c(CN3CCOCC3)cn(Cc3ccc(F)cc3F)c2cn1` [Example 7, 1-(2,4-Difluorobenzyl)-A-hydroxy-N-methyl-3-(morpholin-4-ylmethyl)-1H-pyrrolo[2,3-c]pyridine-5-carboxamide], in assay [1] (setting [4]), the EC50 was found to be 21 nM. For the same compound, in assay [2], the IC50 came out at 140 nM. In the same order, the values of `O=C(NO)c1cc2ccn(CCC3CCCCC3)c2cn1` [Example 26, 1-(2-Cyclohexylethyl)-N-hydroxy-1H-pyrrolo[2,3-c]pyridine-5-carboxamide] are 3700 nM and 770 nM. In the same order, the values of `O=C(NO)c1cc2c(CN3CC[C@@H]4C(=O)NC[C@@H]4C3)cn(Cc3ccc(F)cc3F)c2cn1` (racemic) [Example 16, rac 1-(2,4-difluorobenzyl)-N-hydroxy-3-{[(3aR*,7aS*)-1-oxooctahydro-5H-pyrrolo[3,4-c]pyridin-5-yl]methyl}-1H-pyrrolo[2,3-c]pyridine-5-carboxamide] are 12 nM and 108 nM. In the same order, the values of `O=C(NO)c1cc2c(CN3CCS(=O)(=O)CC3)cn(Cc3ccc(F)cc3F)c2cn1` [Example 9, 1-(2,4-Difluorobenzyl)-3-[(1,1-dioxidothiomorpholin-4-yl)methyl]-N-hydroxy-1H-pyrrolo[2,3-c]pyridine-5-carboxamide] are 7.4 nM and 20 nM.

With `CN1CCC(NCc2cn(Cc3ccc(F)cc3F)c3cnc(C(=O)NO)cc23)CC1` [Example 89, 1-(2,4-Difluorobenzyl)-N-hydroxy-3-{[(1-methylpiperidin-4-yl)amino]methyl}-1H-pyrrolo[2,3-c]pyridine-5-carboxamide], the EC50 in assay [1] (setting [4]) was 52 nM. For the same compound, the IC50 in assay [2] was 708 nM. In the same order, the values of `O=C(NO)c1cc2c(CNCCc3ccccn3)cn(Cc3ccc(F)cc3F)c2cn1` [Example 56] are 11 nM and 278 nM.

On to `CCOCCOCc1cn(Cc2ccc(F)cc2)c2cnc(C(=O)N(C)O)cc12` [Example 120, 3-[(2-ethoxyethoxy)methyl]-1-(4-fluorobenzyl)-N-hydroxy-N-methyl-1H-pyrrolo[2,3-c]pyridine-5-carboxamide], for which, in assay [1] (setting [4]), the EC50 worked out at 307 nM. Also, the IC50 in assay [2] amounted to 57 nM.

With `CCCN(CCO)Cc1cn(Cc2ccc(F)cc2)c2cnc(C(=O)NOCC)cc12` [Example 115, N-ethoxy-1-(4-fluorobenzyl)-3-{[(2-hydroxyethyl)(propyl)amino]methyl}-1H-pyrrolo[2,3-c]pyridine-5-carboxamide], the EC50 in assay [1] (setting [4]) is 3700 nM. As to `O=C(NO)c1cc2c(CNCCO)cn(Cc3ccc(F)cc3F)c2cn1` [Example 3], in assay [1] (setting [3]), the EC50 turned out to be 160 nM. In addition, the IC50 in assay [2] turned out to be 195 nM.

Consider `O=C(NO)c1cc2c(CNCCCN3CCCC3=O)cn(Cc3ccc(F)cc3F)c2cn1` [Example 68, 1-(2,4-Difluorobenzyl)-N-hydroxy-3-({[3-(2-oxopyrrolidin-1-yl)propyl]amino}methyl)-1H-pyrrolo[2,3-c]pyridine-5-carboxamide], for which, in assay [1] (setting [4]), the EC50 is 100 nM. Also, the IC50 in assay [2] worked out at 549 nM. Take `C[C@@H](NCc1cn(Cc2ccc(F)cc2F)c2cnc(C(=O)NO)cc12)C1CCCCC1` [Example 76, 3-({[(1R)-1-Cyclohexylethyl]amino}methyl)-1-(2,4-difluorobenzyl)-N-hydroxy-1H-pyrrolo[2,3-c]pyridine-5-carboxamide]: the EC50 in assay [1] (setting [4]) was 91 nM. The IC50 in assay [2] stood at 402 nM.

In the case of `COCc1cn(Cc2ccc(F)cc2)c2cnc(C(=O)N(C)O)cc12` [Example 122, 1-(4-Fluorobenzyl)-AN-hydroxy-3-(methoxymethyl)-N-methyl-1H-pyrrolo[2,3-c]pyridine-5-carboxamide], in assay [1] (Human immunodeficiency virus 1, CEM-SS, 144 h), the EC50 stood at 242 nM.

In the case of `C=Cc1c(C(=O)NO)ncc2c1ccn2Cc1ccc(F)cc1` [Example 39, 1-(4-Fluorobenzyl)-N-hydroxy-4-vinyl-1H-pyrrolo[2,3-c]pyridine-5-carboxamide], in assay [1] (setting [4]), the EC50 came out at 3.05 nM. Turning to `CCOCCOCc1cn(Cc2ccc(F)cc2)c2cnc(C(=O)NOC)cc12` [Example 121, 3-[(2-Ethoxyethoxy)methyl]-1-(4-fluorobenzyl)-N-methoxy-1H-pyrrolo[2,3-c]pyridine-5-carboxamide], the EC50 in assay [1] (setting [4]) came out at 512 nM. On the same count and under the same terms, the result for `CCONC(=O)c1cc2c(CN(C)CCCN(C)C)cn(Cc3ccc(F)cc3)c2cn1` [Example 116, 3-{[[3-(Dimethylamino)propyl](methyl)amino]methyl}-N-ethoxy-1-(4-fluorobenzyl)-1H-pyrrolo[2,3-c]pyridine-5-carboxamide] reads 3900 nM. Regarding `O=C(NO)c1cc2cnn(Cc3ccc(F)cc3)c2cn1` [Example 35, 1-(4-Fluorobenzyl)-N-hydroxy-1H-pyrazolo[3,4-c]pyridine-5-carboxamide], the IC50 in assay [2] is 446 nM.

For the origin of these results see patent US7468375B2 (Pfizer Inc., priority 2004, dated 2008).
